# Assay results from patent publication US9062078B2, “Substituted 7-azabicyles and their use as orexin receptor modulators” (priority 2013, dated 2015).
# Where two headings read alike, the source gives them in different places.
# Columns and labels:
# rat orexin 1 receptor = rat orexin 1 receptor (Rattus norvegicus, UniProt P56718); test: Rat orexin 1 receptor radioligand binding (competitive, [3H]-SB674042, HEK293 cell preparations)
# human orexin 2 receptor = human orexin 2 receptor (Homo sapiens (Human), UniProt O43614); test: Human orexin 2 receptor radioligand binding (competitive, [3H]-EMPA, HEK293 cell preparations)
# [1] = rat orexin 1 receptor, [3H]-SB674042 competition binding, read-out: rOX1 Ki (nm)
# [2] = human orexin 2 receptor, [3H]-EMPA competition binding, read-out: hOX2 Ki (nm)
# Sequence of human orexin 2 receptor (O43614 whole entry): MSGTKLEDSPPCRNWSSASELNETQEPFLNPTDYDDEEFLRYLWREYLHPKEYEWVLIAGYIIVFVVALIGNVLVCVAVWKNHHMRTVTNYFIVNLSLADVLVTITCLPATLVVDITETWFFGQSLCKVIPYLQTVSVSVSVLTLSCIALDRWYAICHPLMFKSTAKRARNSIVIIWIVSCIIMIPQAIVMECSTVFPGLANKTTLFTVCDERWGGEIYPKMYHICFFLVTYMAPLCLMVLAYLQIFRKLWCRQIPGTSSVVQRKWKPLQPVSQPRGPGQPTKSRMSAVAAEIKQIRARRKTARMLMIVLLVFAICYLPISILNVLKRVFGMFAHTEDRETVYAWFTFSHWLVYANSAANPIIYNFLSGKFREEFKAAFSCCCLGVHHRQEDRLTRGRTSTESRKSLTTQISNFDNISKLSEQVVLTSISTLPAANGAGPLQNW
compound,measurement,setting,value
"Cc1ccc2ncc(C)n2c1C(=O)N1C2CCC1C(COc1ccccn1)C2 (racemic) [Example 76, (±)-(3,6-dimethylimidazo[1,2-a]pyridin-5-yl)(2-((pyridin-2-yloxy)methyl)-7-azabicyclo[2.2.1]heptan-7-yl)methanone]",Ki,rat orexin 1 receptor; [1],> 10000 nM
same,Ki,human orexin 2 receptor; [2],> 10000 nM
"Cn1cc(C(=O)N2C3CCC2C(COc2ccccn2)C3)c(-c2ccccc2)n1 (racemic) [Example 78, (±)-(1-methyl-3-phenyl-1H-pyrazol-4-yl)(2-((pyridin-2-yloxy)methyl)-7-azabicyclo[2.2.1]heptan-7-yl)methanone]",Ki,rat orexin 1 receptor; [1],418 nM
same,Ki,human orexin 2 receptor; [2],3100 nM
"Cc1ccn2c(C)cnc2c1C(=O)N1C2CCC1C(COc1ccccn1)C2 (racemic) [Example 79, (±)-((3,7-dimethylimidazo[1,2-a]pyridin-8-yl)(2-((pyridin-2-yloxy)methyl)-7-azabicyclo[2.2.1]heptan-7-yl)methanone]",Ki,rat orexin 1 receptor; [1],2400 nM
same,Ki,human orexin 2 receptor; [2],8500 nM
"Cc1ccn2ccnc2c1C(=O)N1C2CCC1C(COc1ccccn1)C2 (racemic) [Example 80, (±)-(7-methylimidazo[1,2-a]pyridin-8-yl)(2-((pyridin-2-yloxy)methyl)-7-azabicyclo[2.2.1]heptan-7-yl)methanone]",Ki,rat orexin 1 receptor; [1],1100 nM
same,Ki,human orexin 2 receptor; [2],> 10000 nM
"Cn1ncc(-c2ccccc2)c1C(=O)N1C2CCC1C(COc1ccccn1)C2 (racemic) [Example 81, (±)-(1-methyl-4-phenyl-1H-pyrazol-5-yl)(2-((pyridin-2-yloxy)methyl)-7-azabicyclo[2.2.1]heptan-7-yl)methanone]",Ki,rat orexin 1 receptor; [1],916 nM
same,Ki,human orexin 2 receptor; [2],2900 nM
"Cn1ncc(C(=O)N2C3CCC2C(COc2ccccn2)C3)c1-c1ccccc1 (racemic) [Example 84, (±)-(1-methyl-5-phenyl-1H-pyrazol-4-yl)(−2-((pyridin-2-yloxy)methyl)-7-azabicyclo[2.2.1]heptan-7-yl)methanone]",Ki,rat orexin 1 receptor; [1],2600 nM
same,Ki,human orexin 2 receptor; [2],9700 nM
"Cc1ccc(N2CCN(C)CC2)c(C(=O)N2C3CCC2C(COc2ccccn2)C3)n1 (racemic) [Example 85, (±)-(6-methyl-3-(4-methylpiperazin-1-yl)pyridin-2-yl)(2-((pyridin-2-yloxy)methyl)-7-azabicyclo[2.2.1]heptan-7-yl)methanone]",Ki,rat orexin 1 receptor; [1],> 10000 nM
same,Ki,human orexin 2 receptor; [2],> 10000 nM
"Cc1ccc(N2CCNCC2)c(C(=O)N2C3CCC2C(COc2ccccn2)C3)n1 (racemic) [Example 86, (±)-(6-methyl-3-(piperazin-1-yl)pyridin-2-yl)(2-((pyridin-2-yloxy)methyl)-7-azabicyclo[2.2.1]heptan-7-yl)methanone]",Ki,rat orexin 1 receptor; [1],> 10000 nM
same,Ki,human orexin 2 receptor; hOX2 Ki (nm),> 10000 nM
"Cc1ccc(N2CCOCC2)c(C(=O)N2[C@@H]3CC[C@H]2[C@H](COc2ccccn2)C3)n1 (racemic) [Example 87, (±)-(6-methyl-3-morpholinopyridin-2-yl)((1S,2R,4R)-2-((pyridin-2-yloxy)methyl)-7-azabicyclo[2.2.1]heptan-7-yl)methanone]",Ki,rat orexin 1 receptor; [1],4200 nM
same,Ki,human orexin 2 receptor; hOX2 Ki (nm),> 10000 nM
"Cc1ccc(-c2ncccc2C)c(C(=O)N2C3CCC2C(COc2ccccn2)C3)n1 (racemic) [Example 90, (±)-(3,6′-dimethyl-[2,3′-bipyridin]-2′-yl)(2-((pyridin-2-yloxy)methyl)-7-azabicyclo[2.2.1]heptan-7-yl)methanone]",Ki,rat orexin 1 receptor; [1],3000 nM
same,Ki,human orexin 2 receptor; hOX2 Ki (nm),> 10000 nM
"O=C(c1ncccc1-n1nccn1)N1C2CCC1C(COc1ccccn1)C2 (racemic) [Example 91, (±)-(3-(2H-1,2,3-triazol-2-yl)pyridin-2-yl)(2-((pyridin-2-yloxy)methyl)-7-azabicyclo[2.2.1]heptan-7-yl)methanone]",Ki,rat orexin 1 receptor; rOX1 Ki (nm),624 nM
same,Ki,human orexin 2 receptor; [2],3300 nM
"Cc1ccc(-n2cccn2)c(C(=O)N2C3CCC2C(COc2ccccn2)C3)n1 (racemic) [Example 95, (±)-(6-methyl-3-(1H-pyrazol-1-yl)pyridin-2-yl)(2-((pyridin-2-yloxy)methyl)-7-azabicyclo[2.2.1]heptan-7-yl)methanone]",Ki,rat orexin 1 receptor; [1],247 nM
same,Ki,human orexin 2 receptor; [2],3700 nM
"Cc1ccc(-c2ncccc2C)c(C(=O)N2C3CCC2C(COc2ncc(F)cn2)C3)n1 (racemic) [Example 98, (±)-(3,6′-dimethyl-[2,3′-bipyridin]-2′-yl)(2-(((5-fluoropyrimidin-2-yl)oxy)methyl)-7-azabicyclo[2.2.1]heptan-7-yl)methanone]",Ki,rat orexin 1 receptor; [1],> 10000 nM
same,Ki,human orexin 2 receptor; [2],> 10000 nM
"Cc1cc(-c2ccc(C)nc2C(=O)N2C3CCC2C(COc2ncc(F)cn2)C3)on1 (racemic) [Example 99, (±)-(2-(((5-fluoropyrimidin-2-yl)oxy)methyl)-7-azabicyclo[2.2.1]heptan-7-yl)(6-methyl-3-(3-methylisoxazol-5-yl)pyridin-2-yl)methanone]",Ki,rat orexin 1 receptor; rOX1 Ki (nm),1500 nM
same,Ki,human orexin 2 receptor; [2],2900 nM
"Cc1ccc(-c2ncco2)c(C(=O)N2C3CCC2C(COc2ncc(F)cn2)C3)n1 (racemic) [Example 100, (±)-(2-(((5-fluoropyrimidin-2-yl)oxy)methyl)-7-azabicyclo[2.2.1]heptan-7-yl)(6-methyl-3-(oxazol-2-yl)pyridin-2-yl)methanone]",Ki,rat orexin 1 receptor; [1],950 nM
same,Ki,human orexin 2 receptor; [2],1800 nM
"Cc1ccc(N2CCCC2)c(C(=O)N2C3CCC2C(COc2ncc(F)cn2)C3)n1 (racemic) [Example 101, (±)-(2-(((5-fluoropyrimidin-2-yl)oxy)methyl)-7-azabicyclo[2.2.1]heptan-7-yl)(6-methyl-3-(pyrrolidin-1-yl)pyridin-2-yl)methanone]",Ki,rat orexin 1 receptor; [1],650 nM
same,Ki,human orexin 2 receptor; [2],1200 nM
"Cc1cnn(-c2ccc(C)nc2C(=O)N2C3CCC2C(COc2ncc(F)cn2)C3)c1 (racemic) [Example 103, (±)-(2-(((5-fluoropyrimidin-2-yl)oxy)methyl)-7-azabicyclo[2.2.1]heptan-7-yl)(6-methyl-3-(4-methyl-1H-pyrazol-1-yl)pyridin-2-yl)methanone]",Ki,rat orexin 1 receptor; [1],1700 nM
same,Ki,human orexin 2 receptor; hOX2 Ki (nm),3600 nM
"Cc1ccc(-n2cccn2)c(C(=O)N2C3CCC2C(COc2ncc(F)cn2)C3)n1 (racemic) [Example 104, (±)-(2-(((5-fluoropyrimidin-2-yl)oxy)methyl)-7-azabicyclo[2.2.1]heptan-7-yl)(6-methyl-3-(1H-pyrazol-1-yl)pyridin-2-yl)methanone]",Ki,rat orexin 1 receptor; rOX1 Ki (nm),1100 nM
same,Ki,human orexin 2 receptor; hOX2 Ki (nm),4600 nM
"COc1cccc(OC)c1C(=O)N1C2CCC1C(COc1ccc(F)cn1)C2 (racemic) [Example 106, (±)-(2,6-dimethoxyphenyl)(2-(((5-fluoropyridin-2-yl)oxy)methyl)-7-azabicyclo[2.2.1]heptan-7-yl)methanone]",Ki,rat orexin 1 receptor; [1],300 nM
same,Ki,human orexin 2 receptor; [2],154 nM
"O=C(c1ncc(Cl)cc1-n1nccn1)N1C2CCC1C(COc1ccc(F)cn1)C2 (racemic) [Example 112, (±)-(5-chloro-3-(2H-1,2,3-triazol-2-yl)pyridin-2-yl)(2-(((5-fluoropyridin-2-yl)oxy)methyl)-7-azabicyclo[2.2.1]heptan-7-yl)methanone]",Ki,rat orexin 1 receptor; [1],480 nM
same,Ki,human orexin 2 receptor; [2],1000 nM
"COc1cnc(C(=O)N2C3CCC2C(COc2ccc(F)cn2)C3)c(-n2nccn2)c1 (racemic) [Example 113, (±)-(2-(((5-fluoropyridin-2-yl)oxy)methyl)-7-azabicyclo[2.2.1]heptan-7-yl)(5-methoxy-3-(2H-1,2,3-triazol-2-yl)pyridin-2-yl)methanone]",Ki,rat orexin 1 receptor; [1],3400 nM
same,Ki,human orexin 2 receptor; [2],4800 nM
"CCOc1ccc(C)nc1C(=O)N1C2CCC1C(COc1ccc(F)cn1)C2 (racemic) [Example 118, (±)-(3-ethoxy-6-methylpyridin-2-yl)(2-(((5-fluoropyridin-2-yl)oxy)methyl)-7-azabicyclo[2.2.1]heptan-7-yl)methanone]",Ki,rat orexin 1 receptor; [1],440 nM
same,Ki,human orexin 2 receptor; [2],2200 nM
"COc1ccc(C(=O)N2C3CCC2C(COc2ccc(F)cn2)C3)c(-n2nccn2)c1 (racemic) [Example 119, (±)-(2-(((5-fluoropyridin-2-yl)oxy)methyl)-7-azabicyclo[2.2.1]heptan-7-yl)(4-methoxy-2-(2H-1,2,3-triazol-2-yl)phenyl)methanone]",Ki,rat orexin 1 receptor; [1],500 nM
same,Ki,human orexin 2 receptor; [2],1300 nM
"Cc1cccc(-c2ncccn2)c1C(=O)N1C2CCC1C(COc1ccc(F)cn1)C2 (racemic) [Example 123, (±)-(2-(((5-fluoropyridin-2-yl)oxy)methyl)-7-azabicyclo[2.2.1]heptan-7-yl)(2-methyl-6-(pyrimidin-2-yl)phenyl)methanone]",Ki,rat orexin 1 receptor; rOX1 Ki (nm),400 nM
same,Ki,human orexin 2 receptor; [2],286 nM
"CCOc1nccc(C)c1C(=O)N1C2CCC1C(COc1ccccn1)C2 (racemic) [Example 155, (±)-(2-ethoxy-4-methylpyridin-3-yl)(2-((pyridin-2-yloxy)methyl)-7-azabicyclo[2.2.1]heptan-7-yl)methanone]",Ki,rat orexin 1 receptor; rOX1 Ki (nm),1570 nM
same,Ki,human orexin 2 receptor; [2],3600 nM
"Cc1nc2sccn2c1C(=O)N1C2CCC1C(COc1ccccn1)C2 (racemic) [Example 156, (±)-(6-methylimidazo[2,1-b]thiazol-5-yl)(2-((pyridin-2-yloxy)methyl)-7-azabicyclo[2.2.1]heptan-7-yl)methanone]",Ki,rat orexin 1 receptor; [1],> 10000 nM
same,Ki,human orexin 2 receptor; [2],> 10000 nM
"CCOc1nc(C)ccc1C(=O)N1C2CCC1C(COc1ccccn1)C2 (racemic) [Example 158, (±)-(2-ethoxy-6-methylpyridin-3-yl)(2-((pyridin-2-yloxy)methyl)-7-azabicyclo[2.2.1]heptan-7-yl)methanone]",Ki,rat orexin 1 receptor; [1],2930 nM
same,Ki,human orexin 2 receptor; [2],1780 nM
"O=C(c1c(O)ccc2cccnc12)N1C2CCC1C(COc1ccccn1)C2 (racemic) [Example 159, (±)-(7-hydroxyquinolin-8-yl)(2-((pyridin-2-yloxy)methyl)-7-azabicyclo[2.2.1]heptan-7-yl)methanone]",Ki,rat orexin 1 receptor; [1],262 nM
same,Ki,human orexin 2 receptor; [2],786 nM
"CCOc1ncc(-c2ccccc2)cc1C(=O)N1C2CCC1C(COc1ccccn1)C2 (racemic) [Example 160, (±)-(2-ethoxy-5-phenylpyridin-3-yl)(2-((pyridin-2-yloxy)methyl)-7-azabicyclo[2.2.1]heptan-7-yl)methanone]",Ki,rat orexin 1 receptor; [1],8700 nM
same,Ki,human orexin 2 receptor; [2],> 10000 nM
"CCOc1nccc(Br)c1C(=O)N1C2CCC1C(COc1ccccn1)C2 (racemic) [Example 161, (±)-(4-bromo-2-ethoxypyridin-3-yl)(2-((pyridin-2-yloxy)methyl)-7-azabicyclo[2.2.1]heptan-7-yl)methanone]",Ki,rat orexin 1 receptor; [1],478 nM
same,Ki,human orexin 2 receptor; hOX2 Ki (nm),1450 nM
